Tests used:
HCV NS5B polymerase = molecular target: T1, HCV NS5B polymerase (Hepatitis C virus genotype 1b, UniProt P26663); assay: HCV NS5B Polymerase Inhibition Assay; format: biochemical
T1 construct: A soluble C-terminal 21-amino acid truncated NS5B enzyme form; polyhistidine (C); made in house; host or cells: Escherichia coli
Text: A chemically synthesized 75-mer version, designated DCoH75, whose sequence matches the 3′-end of D-RNA, and DCoH75ddC, where the 3′-terminal cytidine of DCoH75 is replaced by dideoxycytidine, were used for assaying the NS5B enzyme activity as described in Ferrari et al., 12th International Symposium on HCV and Related Viruses, P-306 (2005). A soluble C-terminal 21-amino acid truncated NS5B enzyme form (NS5B[…]CT21) was produced and purified from Escherichia coli as C-terminal polyhistidine-tagged fusion protein as described in Ferrari et al., J. Virol. 73:1649-1654 (1999). A typical assay contained 20 mM Hepes pH 7.3, 10 mM MgCl2, 60 mM NaCl, 100 μg/ml BSA, 20 units/ml RNasin, 7.5 mM DTT, 0.1 μM ATP/GTP/UTP, 0.026 μM CTP, 0.25 mM GAU, 0.03 μM RNA template, 20 μCi/ml [^33P]-CTP, 2% DMSO, and 30 or 150 nM NS5B enzyme. Reactions were incubated at 22° C. for 2 hours, then stopped by adding 150 mM EDTA, washed in DE81 filter plate in 0.5M di-basic sodium phosphate buffer, pH 7.0, and counted using Packard TopCount after the addition of scintillation cocktail. Polynucleotide synthesis was monitored by the incorporation of radiolabeled CTP. The effect of the Compounds of Formula (I) on the polymerase activity was evaluated by adding various concentrations of a Compound of Formula (I), typically in 10 serial 2-fold dilutions, to the assay mixture. The starting concentrations of the indole derivatives ranged from 200 μM to 1 μM. An IC50 value for the inhibitor, defined as the compound concentration that provides 50% inhibition of polymerase activity, was determined by fitting the cpm data to the Hill equation Y=100/(1+10^((Log IC50−X)*HillSlope)), where X is the logarithm of compound concentration, and Y is the % inhibition. Ferrari et al., 12th International Symposium on HCV and Related Viruses, P-306 (2005) described in detail this assay procedure. It should be noted that such an assay as described is exemplary and not intended to limit the scope of the invention. The skilled practitioner can appreciate that modifications including but not limited to RNA template, primer, nucleotides, NS5B polymerase form, buffer composition, can be made to develop similar assays that yield the same result for the efficacy of the compounds and compositions described in the invention.
NS5B polymerase inhibition data for selected Compounds of Formula (I) is provided below in Table 2, wherein the compound numbers correspond to the compound numbering set forth in the above specification.

HCV replicon cells = assay: Cell-Based HCV Replicon Assay; conditions: Hepatitis C virus, 72 h; replicon RNA level by real time PCR (Taqman), cells harvested on day 3
Experimental: To measure cell-based anti-HCV activity of the a Compound of Formula (I), replicon cells were seeded at 5000 cells/well in 96-well collagen I-coated Nunc plates in the presence of the Compound of Formula (I). Various concentrations of a Compound of Formula (I), typically in 10 serial 2-fold dilutions, were added to the assay mixture, the starting concentration of the compound ranging from 250 μM to 1 μM. The final concentration of DMSO was 0.5%, fetal bovine serum was 5%, in the assay media. Cells were harvested on day 3 by the addition of 1× cell lysis buffer (Ambion cat #8721). The replicon RNA level was measured using real time PCR (Taqman assay). The amplicon was located in 5B. The PCR primers were: 5B.2F, ATGGACAGGCGCCCTGA; 5B.2R, […]; the probe sequence was FAM-labeled CACGCCATGCGCTGCGG. GAPDH RNA was used as endogenous control and was amplified in the same reaction as NS5B (multiplex PCR) using primers and VIC-labeled probe recommended by the manufacturer (PE Applied Biosystem). The real-time RT-PCR reactions were run on ABI PRISM 7900HT Sequence Detection System using the following program: 48° C. for 30 min, 95° C. for 10 min, 40 cycles of 95° C. for 15 sec, 60° C. for 1 min. The ACT values (CT5B-CTGAPDH) were plotted against the concentration of test compound and fitted to the sigmoid dose-response model using XLfit4 (MDL). EC50 was defined as the concentration of inhibitor necessary to achieve ΔCT=1 over the projected baseline; EC90 the concentration necessary to achieve […] over the baseline. Alternatively, to quantitate the absolute amount of replicon RNA, a standard curve was established by including serially diluted T7 transcripts of replicon RNA in the Taqman assay. All Taqman reagents were from PE Applied Biosystems. Such an assay procedure was described in detail in e.g. Malcolm et al., Antimicrobial Agents and Chemotherapy 50: 1013-1020 (2006).
HCV Replicon assay data for selected Compounds of Formula (I) is provided below in Table 3, wherein the compound numbers correspond to the compound numbering set forth in the above specification. The data is designated as follows: “A” for EC50 values less than 1.0 micromolar (μM), “B” for EC50 values between 1.0 and 10.0 μM and “C” for EC50 values greater than 10.0 μM.

T1 sequence (P26663 2420-2989): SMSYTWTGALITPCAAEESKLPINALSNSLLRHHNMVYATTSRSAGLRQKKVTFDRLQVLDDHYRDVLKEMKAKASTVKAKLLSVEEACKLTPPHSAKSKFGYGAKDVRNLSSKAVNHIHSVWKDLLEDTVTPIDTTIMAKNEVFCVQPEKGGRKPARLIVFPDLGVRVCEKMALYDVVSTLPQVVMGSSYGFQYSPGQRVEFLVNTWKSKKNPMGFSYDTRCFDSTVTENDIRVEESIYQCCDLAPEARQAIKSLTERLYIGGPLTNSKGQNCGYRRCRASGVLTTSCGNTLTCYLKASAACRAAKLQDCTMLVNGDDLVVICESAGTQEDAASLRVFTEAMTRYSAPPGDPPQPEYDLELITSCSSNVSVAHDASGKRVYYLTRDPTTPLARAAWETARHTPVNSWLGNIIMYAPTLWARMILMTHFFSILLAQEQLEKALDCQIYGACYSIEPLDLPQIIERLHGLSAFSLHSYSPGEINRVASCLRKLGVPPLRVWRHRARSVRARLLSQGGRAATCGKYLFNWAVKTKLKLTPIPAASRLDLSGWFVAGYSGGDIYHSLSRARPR

Row | Structure (SMILES) | IC50 (HCV NS5B polymerase) | EC50 (HCV replicon cells)
1 | CS(=O)(=O)NC(=O)c1c(-c2ccc[nH]c2=O)c2c3ccccc3ccc2n1Cc1ccnc(N)c1 [Compound 6] | 0.025 to 0.1 µM | > 10 µM
2 | COC(=O)c1cccc(Cn2c(C(=O)NS(C)(=O)=O)c(-c3ccc[nH]c3=O)c3c4ccccc4ccc32)c1 [Compound 10] | < 0.025 µM | 1 to 10 µM
3 | O=C(O)c1c(-c2ccc[nH]c2=O)c2c3ncccc3ccc2n1Cc1ccc(F)cc1F [Compound 19] | > 0.1 µM | 
4 | O=C(O)c1c(-c2ccccc2F)c2c3ccccc3ccc2n1Cc1ccccc1 [Compound 2] | > 0.1 µM | 
5 | Nc1cc(Cn2c(C(=O)O)c(-c3ccccc3F)c3c4ccccc4ccc32)ccn1 [Compound 3] | > 0.1 µM | 1 to 10 µM
6 | O=C(NS(=O)(=O)C1CC1)c1c(-c2ccc[nH]c2=O)c2c3ccccc3c(F)cc2n1Cc1cc([N+](=O)[O-])ccc1F [Compound 33] | < 0.025 µM | < 1 µM
7 | O=C(NS(=O)(=O)C1CC1)c1c(-c2ccc[nH]c2=O)c2c3c(ccc2n1Cc1cc(F)ccc1F)CCCO3 [Compound 32] | < 0.025 µM | < 1 µM
8 | Nc1cc(Cn2c(C(=O)O)c(-c3ccc[nH]c3=O)c3c4ccccc4ccc32)ccn1 [Compound 4] | > 0.1 µM | 1 to 10 µM
9 | O=C(O)c1c(-c2ccc[nH]c2=O)c2c3ccccc3c(F)cc2n1Cc1cc([N+](=O)[O-])ccc1F [Compound 27] | 0.025 to 0.1 µM | < 1 µM
10 | CCS(=O)(=O)NC(=O)c1c(-c2ccc[nH]c2=O)c2c3ccccc3ccc2n1Cc1ccnc(N)c1 [Compound 14] | 0.025 to 0.1 µM | 1 to 10 µM
11 | O=C(NS(=O)(=O)C1CC1)c1c(-c2ccc[nH]c2=O)c2c3c(ccc2n1Cc1ccccc1F)CCCO3 [Compound 30] | < 0.025 µM | < 1 µM
12 | CS(=O)(=O)NC(=O)c1cccc(Cn2c(C(=O)NS(C)(=O)=O)c(-c3ccc[nH]c3=O)c3c4ccccc4ccc32)c1 [Compound 9] | 0.025 to 0.1 µM | 
13 | CS(=O)(=O)NC(=O)c1c(-c2ccc[nH]c2=O)c2c3c(ccc2n1Cc1ccccc1F)CCCO3 [Compound 21] | < 0.025 µM | < 1 µM
14 | Nc1ccccc1Cn1c(C(=O)O)c(-c2ccccc2F)c2c3ccccc3ccc21 [Compound 1] | > 0.1 µM | > 10 µM
15 | O=C(O)c1c(-c2ccc[nH]c2=O)c2c3ccccc3c(F)cc2n1Cc1ccccc1F [Compound 24] | 0.025 to 0.1 µM | 1 to 10 µM
16 | CS(=O)(=O)NC(=O)c1c(-c2ccc[nH]c2=O)c2c3c(ccc2n1Cc1ccccc1F)OCCO3 [Compound 28] | < 0.025 µM | < 1 µM
17 | O=C(O)c1c(-c2ccc[nH]c2=O)c2c3ncccc3ccc2n1Cc1ccccc1F [Compound 18] | > 0.1 µM | 1 to 10 µM

Row | Structure (SMILES) | IC50 (HCV NS5B polymerase) | EC50 (HCV replicon cells)
18 | O=C(O)c1cccc(Cn2c(C(=O)O)c(-c3ccccc3F)c3c4ccccc4ccc32)c1 [Compound 7] | > 0.1 µM | > 10 µM
19 | Nc1cc(Cn2c(C(=O)NS(=O)(=O)c3ccccc3)c(-c3ccc[nH]c3=O)c3c4ccccc4ccc32)ccn1 [Compound 11] | 0.025 to 0.1 µM | 1 to 10 µM
20 | O=C(O)c1c(-c2ccc[nH]c2=O)c2c3ncccc3ccc2n1Cc1cc(F)ccc1F [Compound 17] | 0.025 to 0.1 µM | 1 to 10 µM
21 | O=C(O)c1c(-c2ccc[nH]c2=O)c2c3c(ccc2n1Cc1ccccc1F)CCCO3 [Compound 22] | < 0.025 µM | < 1 µM
22 | CC(C)(C)S(=O)(=O)NC(=O)c1c(-c2ccc[nH]c2=O)c2c3ccccc3ccc2n1Cc1ccnc(N)c1 [Compound 13] | 0.025 to 0.1 µM | 
23 | O=C(O)c1c(-c2ccc[nH]c2=O)c2c3c(ccc2n1Cc1ccccc1F)OCCO3 [Compound 23] | < 0.025 µM | 1 to 10 µM
24 | CS(=O)(=O)NC(=O)c1c(-c2ccc[nH]c2=O)c2c3ccccc3ccc2n1Cc1cccc(C(=O)O)c1 [Compound 12] | < 0.025 µM | > 10 µM
25 | CS(=O)(=O)Nc1cccc(S(=O)(=O)NC(=O)c2c(-c3ccc[nH]c3=O)c3c4ccccc4ccc3n2Cc2ccc(F)cc2F)c1 [Compound 16] | < 0.025 µM | < 1 µM
26 | Nc1cc(Cn2c(C(=O)O)c(-c3ccccc3F)c3c4ccccc4ccc32)ncn1 [Compound 5] | > 0.1 µM | > 10 µM
27 | CS(=O)(=O)NC(=O)c1c(-c2ccc[nH]c2=O)c2c3c(ccc2n1Cc1cc(F)ccc1F)CCCO3 [Compound 29] | < 0.025 µM | < 1 µM
28 | O=C(O)c1c(-c2ccc[nH]c2=O)c2c3c(ccc2n1Cc1cc(F)ccc1F)OCCO3 [Compound 26] | < 0.025 µM | < 1 µM
29 | O=C(O)c1c(-c2ccc[nH]c2=O)c2c3c(ccc2n1Cc1cc(F)ccc1F)CCCO3 [Compound 25] | < 0.025 µM | < 1 µM
30 | O=C(O)c1cccc(Cn2c(C(=O)O)c(-c3ccc[nH]c3=O)c3c4ccccc4ccc32)c1 [Compound 8] | > 0.1 µM | 
31 | Nc1cc(Cn2c(C(=O)NS(=O)(=O)c3ccc(O)cc3)c(-c3ccc[nH]c3=O)c3c4ccccc4ccc32)ccn1 [Compound 15] | 0.025 to 0.1 µM | 1 to 10 µM
32 | CS(=O)(=O)NC(=O)c1c(-c2ccc[nH]c2=O)c2c3c(ccc2n1Cc1cc(F)ccc1F)OCCO3 [Compound 20] | < 0.025 µM | < 1 µM
33 | O=C(NS(=O)(=O)C1CC1)c1c(-c2ccc[nH]c2=O)c2c3ccccc3c(F)cc2n1Cc1ccccc1F [Compound 31] | < 0.025 µM | < 1 µM

Source: US8546420B2, “4, 5-ring annulated indole derivatives for treating or preventing of HCV and related viral infections” (Merck Sharp & Dohme Corp., priority 2006, dated 2013)
